Measurements taken from patent US9364453B2, “Method of treating postural reflex abnormality caused by parkinson's disease” (Lundbeck NA Ltd., priority 2011, dated 2016).

Key:
[1] = test system: PA disease patient with pure akinesia and chief complaint of freezing of gait; test: Example 2: treatment of a PA disease patient with pure akinesia and chief complaint of freezing of gait; format: in vivo, human; conditions: person; DOPS 300 mg/day in 3 portions
Procedure: Treatment effect of therapeutic agent of the present invention for PA disease patient with pure akinesia and chief complaint of freezing of gait A PA disease patient with pure akinesia and chief complaint of freezing of gait: person. a) DOPS (300 mg/day) was administered in 3 portions, but ineffective. b) DOPS (300 mg/day) and Comtan® (300 mg/day) as a COMT inhibitor were simultaneously administered in 3 portions each. […] Combined use of DOPS and Comtan® (COMT inhibitor) was effective even in a treatment without using an L-DOPA preparation and a dopamine receptor stimulator.

[2] = test system: PA disease patient with pure akinesia and chief complaint of freezing of gait, not responsive to L-DOPA preparation; test: Example 3: treatment of a PA disease patient with pure akinesia and freezing of gait, not responsive to L-DOPA preparation; format: in vivo, human; conditions: person, DOPS 600 mg/day in 3 portions
Text: A combined use of DOPS and a COMT inhibitor was effective for the “freezing of gait symptom” for which L-DOPA preparation is not effective.

patients with PA disease = conditions: cited from earlier work
[3] = target: T1, aromatic amino acid decarboxylase (AADC) (Homo sapiens, UniProt P20711); conditions: as compared to L-DOPA; cited from earlier work
T1 sequence (P20711 1-480): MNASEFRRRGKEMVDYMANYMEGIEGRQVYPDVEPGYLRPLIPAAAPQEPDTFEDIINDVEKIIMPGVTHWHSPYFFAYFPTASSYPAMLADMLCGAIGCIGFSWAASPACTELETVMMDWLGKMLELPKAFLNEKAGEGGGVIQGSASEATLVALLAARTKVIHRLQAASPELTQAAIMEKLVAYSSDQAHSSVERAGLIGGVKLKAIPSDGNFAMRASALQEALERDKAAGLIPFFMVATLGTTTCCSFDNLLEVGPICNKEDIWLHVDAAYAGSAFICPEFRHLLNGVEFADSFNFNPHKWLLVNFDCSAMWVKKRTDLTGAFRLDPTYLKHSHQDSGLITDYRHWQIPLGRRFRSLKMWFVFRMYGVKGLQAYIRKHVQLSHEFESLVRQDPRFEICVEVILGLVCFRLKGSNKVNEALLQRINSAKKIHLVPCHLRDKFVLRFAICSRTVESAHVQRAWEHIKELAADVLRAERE

[4] = as compared to L-DOPA; cited from earlier work

In the case of `N[C@H](C(=O)O)[C@H](O)c1ccc(O)c(O)c1` [DOPS, L-threo-3,4-dihydroxy-phenylserine], the “effect on freezing of gait” value [1] is given as “ineffective”, the “effect on freezing of gait” value [2] is given as “slight improvement effect” and the “clinical trial results versus placebo” value (patients with PA disease; double-blind comparison, DOPS in optically active form) is given as “significantly superior to that of placebo”. For the same compound, the efficacy rate (patients with PA disease; in vivo) was “not necessarily high”, the decarboxylation reaction rate [3] was “low” and the “transferability into the brain” value [4] was “low”.
